Assay results: patent US20260097022A1, “COMPOUNDS AND USES THEREOF” (Integrated Biosciences, Inc., priority 2023, published 2026)
pIC50: −log10 of the molar value.

Columns and labels:
Bcl-2 = molecular target: T1, Bcl-2 (Homo sapiens, UniProt P10415); test: BCL-2 TR-FRET, inhibition of Bcl-2 binding to a peptide ligand; details: at micromolar concentrations
T1 construct: purchased BPS Bioscience 50222
Procedure: BCL-2 TR-FRET. Inhibition of Bcl-2 binding to a peptide ligand was measured using the BCL-2 TR-FRET Assay Kit from BPS Bioscience (BPS Bioscience 50222). Briefly, the provided BCL TR-FRET assay buffer was diluted 1:3 with ultrapure Milli-Q water. The anti-His terbium-labeled donor and dye-labeled acceptor were each diluted 1:100 with diluted assay buffer. The BCL-2 peptide ligand was thawed on ice and diluted 1:40 with diluted assay buffer, and BCL-2 protein was diluted with diluted assay buffer to a working concentration of 1 ng/μL. Test compounds at the indicated final concentrations were prepared as stock 10% DMSO solutions in ultrapure Milli-Q water. The reaction was performed by combining 5 μL diluted donor. 5 μL diluted acceptor. 2 μL test compound. 5 μL diluted ligand, and 3 μL diluted protein in each well of the provided white, flat-bottom 384-well plate. Positive control reactions had 2 μL 10% DMSO in water in lieu of test compound. Negative control reactions had 2 μL 10% DMSO in water and 5 μL diluted assay buffer in lieu of test compound and diluted ligand. Reactions were incubated at room temperature for 3 hours, and fluorescent intensities were measured using a SpectraMax® M5 plate reader and manufacturer software (SoftMax Pro 6) with the following TR-FRET settings; for terbium-labeled donor emission, ex/em. 340/620 nm: lag time. 100 μs: integration time. 500 μs: for dye-acceptor emission, ex/em. 340/665 nm: lag time. 100 μs; integration time. 500 μs. The TR-FRET ratio. 665 nm emission/620 nm emission, was calculated for all reactions, and percentage activity was calculated by linearly interpolating the positive and negative control TR-FRET ratio values between relative activity values of 0) and 1. Experiments were performed in biological duplicate and repeated on independent occasions.

human red blood cells = test: Hemolysis assay; format: cell-based; details: up to a final concentration of 100 μM; 1 h at 37° C.
Procedure: Hemolysis assay. Whole human blood containing EDTA (Innovative Resarch IWB1K2E) was centrifuged at 120×g at 4° C., for 5 min and resuspended in Dulbecco's PBS (DPBS: VWR 02-0119-0500). These washing steps were repeated until the supernatant was clear. Red blood cells were then resuspended in DPBS to 5×10^8 cells/mL, and 100 μL of cells was plated into each well of a 96-well clear round-bottom plate. Compounds were added to the indicated concentrations, and DMSO was used as a vehicle. Samples were incubated for 1 h at 37° C., without shaking, after which plates were centrifuged at 1500×g at room temperature for 5 min to pellet cells. 60 μL of the supernatant from each sample was then transferred to a 96-well clear flat-bottom plate, and the absorbance was read at 405 nm using a SpectraMax M3 plate reader to quantify the amount of soluble hemoglobin. Fractional hemolysis was determined by linearly interpolating absorbance values with respect to a positive control (saturation with 10% Triton X-100) and a negative control (1% DMSO vehicle). Results are depicted in FIG. 14.

HEK293 cells = test: Cytotoxicity against HEK293 cells (resazurin); format: cell-based, human; details: 3 days treatment, curve-fitting, two biological replicates
Procedure: Measuring cytotoxicity against HepG2 and HEK293 cells. Cytotoxicity in human embryonic kidney (HEK293) and liver carcinoma (HepG2) cells was assayed as above using a resazurin assay. Cells were obtained from ATCC (ATCC CRL-1573 and HB-8065), passaged <10 times, and grown in Dulbecco's modification of Eagle's Medium (DMEM: Corning 10^−013-CV) supplemented with 10% FBS and 1% penicillin-streptomycin. 99 μL of cells were plated into each well of a 96-well clear flat-bottom, black polystyrene tissue-culture-treated plate at a density of ˜10+ cells/well, and plates were incubated overnight for adhesion. The day after plating. 1 μL of each compound, prepared as two-fold serial dilutions of 5 mM stock solutions in DMSO, was added to each well. Cells were incubated for 3 days, after which resazurin was added to each well to a final concentration of 0.15 mM. After an additional 1 day of incubation, the fluorescence excitation/emission at 550/590 nm was read using a SpectraMax M3 plate reader. Experiments were performed in biological duplicate. IC50 values were determined by normalizing with respect to the fluorescence intensity values of untreated control cells on day 3, as described in Calculation of cellular viability values in dose-response curves above.

T1 sequence (P10415 whole entry): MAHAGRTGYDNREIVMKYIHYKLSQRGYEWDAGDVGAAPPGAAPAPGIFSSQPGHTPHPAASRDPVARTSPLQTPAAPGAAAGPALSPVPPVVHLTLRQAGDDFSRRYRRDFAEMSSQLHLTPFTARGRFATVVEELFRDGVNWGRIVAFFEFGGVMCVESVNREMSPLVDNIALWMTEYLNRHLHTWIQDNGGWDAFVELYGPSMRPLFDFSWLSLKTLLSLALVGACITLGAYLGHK

Compound | inhibition of Bcl-2 binding activity to a peptide ligand (Bcl-2) | hemolysis (human red blood cells) | pIC50 (HEK293 cells) | pIC50 (HEK293 cells; Homo sapiens, HEK293, 72 h)
O=C(Nc1ccc(S(=O)(=O)Nc2ncccn2)cc1)c1ccc(-c2ccccc2)cc1 [BRD-K20733377] | inhibited Bcl-2 | did not induce significant hemolysis | 4.29 | 
COc1ccc(C(=O)Nc2ccc3nc(SCC(=O)Nc4ccccc4F)sc3c2)cc1OC [compound 6] | inhibited Bcl-2 | did not induce significant hemolysis |  | 4.67
Cc1ccccc1C(=O)Nc1ccc2nc(SCC(=O)Nc3ccccc3)sc2c1 [compound 19] | inhibited Bcl-2 | did not induce significant hemolysis |  | 3.80
